pEC50: −log10 of the molar value.
Columns and labels:
[1] = test system: recombinant NL4-3 virus (nef section replaced with Renilla luciferase gene) in MT-2 cells; assay: HIV cell culture assay (antiviral activity, luciferase readout); type: cell-based; conditions: Renilla, NL43, MT-2 cells infected for 4-5 days with recombinant NL4-3 Renilla luciferase virus
Outline: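 The reporter virus was produced by transfecting 293T cells with the NL4-3 nef/Renilla luciferase proviral clone. MT-2 cells were infected for 4–5 days with serial compound dilutions present. Luciferase was read with a live-cell substrate, and EC50 came from the exponential median-effect equation.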

[2] = Compound cytotoxicity, XTT-based colorimetric assay; type: cell-based; conditions: human; uninfected MT2 cells, day 4, XTT; read-out: CC50
Outline: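 Follows the antiviral assay procedure, but with uninfected MT2 cells. On day 4, cell viability is measured by XTT-based colorimetry, giving CC50 values.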

SMILES | pEC50 [1] | CC50 at 4 days [2] [nM]
Cc1cc(C2CCC(F)(F)CC2)nc2nc([C@H](Cc3cc(F)cc(F)c3)NC(=O)Cn3nc(C4CC4)c4c3C[C@@H]3C[C@H]43)n(-c3ccc(Cl)c4c(NS(C)(=O)=O)nn(C[C@H](C)N5CC(C)(C)OC(C)(C)C5)c34)c(=O)c12 (relative stereo) [Example 714, N-[(1S)-1-[(3P)-3-{4-chloro-3-methanesulfonamido-1-[(2S)-2-(2,2,6,6-tetramethylmorpholin-4-yl)propyl]-1H-indazol-7-yl}-7-(4,4-difluorocyclohexyl)-5-methyl-4-oxo-3H,4H-pyrido[2,3-d]pyrimidin-2-yl]-2-(3,5-difluorophenyl)ethyl]-2-[(2R*,4R*)-9-cyclopropyl-7,8-diazatricyclo[4.3.0.0^2,4]nona-1(6),8-dien-7-yl]acetamide] | 10.62 | > 20
Cc1cc(C2(F)CCC(F)(F)CC2)nc2nc([C@H](Cc3cc(F)cc(F)c3)NC(=O)Cn3nc(C4CC4)c4c3C[C@@H]3C[C@H]43)n(-c3ccc(Cl)c4c(NS(C)(=O)=O)nn(C[C@H](C)N5C[C@@H](C)O[C@@H](C)C5)c34)c(=O)c12 (relative stereo) [Example 722, N-[(1S)-1-[(3P)-3-{4-chloro-1-[(2S)-2-[(2R,6S)-2,6-dimethylmorpholin-4-yl]propyl]-3-methanesulfonamido-1H-indazol-7-yl}-5-methyl-4-oxo-7-(1,4,4-trifluorocyclohexyl)-3H,4H-pyrido[2,3-d]pyrimidin-2-yl]-2-(3,5-difluorophenyl)ethyl]-2-[(2R*,4R*)-9-cyclopropyl-7,8-diazatricyclo[4.3.0.0^2,^4]nona-1(6),8-dien-7-yl]acetamide] | 11.15 | > 20
Cc1cc(C2(F)CCC(F)(F)CC2)nc2nc([C@H](Cc3cc(F)cc(F)c3)NC(=O)Cn3nc(C4CC4)c4c3C[C@@H]3C[C@H]43)n(-c3ccc(Cl)c4c(NS(C)(=O)=O)nn(C[C@@H](C)N5C[C@@H](C)O[C@@H](C)C5)c34)c(=O)c12 (relative stereo) [Example 723, N-[(1S)-1-[(3P)-3-{4-chloro-1-[(2R)-2-[(2R,6S)-2,6-dimethylmorpholin-4-yl]propyl]-3-methanesulfonamido-1H-indazol-7-yl}-5-methyl-4-oxo-7-(1,4,4-trifluorocyclohexyl)-3H,4H-pyrido[2,3-d]pyrimidin-2-yl]-2-(3,5-difluorophenyl)ethyl]-2-[(2R*,4R*)-9-cyclopropyl-7,8-diazatricyclo[4.3.0.0^2,^4]nona-1(6),8-dien-7-yl]acetamide] | 10.92 | > 20
Cc1cc(C2CCC(F)(F)CC2)nc2nc([C@H](Cc3cc(F)cc(F)c3)NC(=O)Cn3nc(C4CC4)c4c3C[C@@H]3C[C@H]43)n(-c3ccc(Cl)c4c(NS(C)(=O)=O)nn([C@@H](C)CN5CC(C)(C)OC(C)(C)C5)c34)c(=O)c12 (relative stereo) [Example 724, N-[(1S)-1-[(3P)-3-{4-chloro-3-methanesulfonamido-1-[(2S)-1-(2,2,6,6-tetramethylmorpholin-4-yl)propan-2-yl]-1H-indazol-7-yl}-7-(4,4-difluorocyclohexyl)-5-methyl-4-oxo-3H,4H-pyrido[2,3-d]pyrimidin-2-yl]-2-(3,5-difluorophenyl)ethyl]-2-[(2R*,4R*)-9-cyclopropyl-7,8-diazatricyclo[4.3.0.0^2,^4]nona-1(6),8-dien-7-yl]acetamide] | 10.44 | > 20
